Laboratory results published in patent publication US11472791B2 (Incyte Corporation, priority 2019, dated 2022).

molecular target: CDK2/Cyclin E1 (Homo sapiens (Human), UniProt P24941); assay: CDK2/Cyclin E1 HTRF enzyme activity assay; assay type: biochemical; details: 1 mM ATP
Protocol: Assays are conducted in white 384-well polystyrene plates in a final reaction volume of 8 μL. […] HTRF signals are read after 1 hour at room temperature on a PHERAstar FS plate reader (BMG Labtech). Data is analyzed with IDBS XLFit and GraphPad Prism 5.0 software using a three or four parameter dose response curve to determine IC50 for each compound.

IC50, < 50 nM:
CNCc1ccc(-n2cc(-c3nc(N[C@H]4CCN(S(=O)(=O)C5CC5)C[C@H]4F)ncc3C(F)(F)F)cn2)c(C)c1 [Example 123, N-((3R,4S)-1-(Cyclopropylsulfonyl)-3-fluoropiperidin-4-yl)-4-(1-(2-methyl-4-((methylamino)methyl)phenyl)-1H-pyrazol-4-yl)-5-(trifluoromethyl)pyrimidin-2-amine]
CNCc1ccc(-n2cc(-c3nc(NC4CCN(S(C)(=O)=O)CC4)ncc3Cl)cn2)c(Cl)c1 [Example 124, 5-Chloro-4-(1-(2-chloro-4-((methylamino)methyl)phenyl)-1H-pyrazol-4-yl)-N-(1-(methylsulfonyl)piperidin-4-yl)pyrimidin-2-amine]
CCNCc1ccc(-n2cc(-c3nc(NC4CCN(S(=O)(=O)CC)CC4)ncc3C#N)cn2)c(C)n1 [Example 125, 4-(1-(6-((Ethylamino)methyl)-2-methylpyridin-3-yl)-1H-pyrazol-4-yl)-2-((1-(ethylsulfonyl)piperidin-4-yl)amino)pyrimidine-5-carbonitrile]
CNCc1ccc(-n2cc(-c3nc(NC4CCN(S(=O)(=O)c5cn(C)cn5)CC4)ncc3C#N)cn2)c(C)n1 [Example 126, 2-((1-((1-Methyl-1H-imidazol-4-yl)sulfonyl)piperidin-4-yl)amino)-4-(1-(2-methyl-6-((methylamino)methyl)pyridin-3-yl)-1H-pyrazol-4-yl)pyrimidine-5-carbonitrile]
CCNCc1ccc(-n2cc(-c3nc(NC4CCN(S(=O)(=O)c5cn(C)cn5)CC4)ncc3C#N)cn2)c(C)n1 [Example 127, 4-(1-(6-((Ethylamino)methyl)-2-methylpyridin-3-yl)-1H-pyrazol-4-yl)-2-((1-((1-methyl-1H-imidazol-4-yl)sulfonyl)piperidin-4-yl)amino)pyrimidine-5-carbonitrile]
[2H]C([2H])([2H])NCc1ccc(-n2cc(-c3nc(NC4CCN(S(C)(=O)=O)CC4)ncc3C(F)(F)F)cn2)c(C)c1 [Example 128, 4-(1-(2-Methyl-4-(((methyl-d3)amino)methyl)phenyl)-1H-pyrazol-4-yl)-N-(1-(methylsulfonyl)piperidin-4-yl)-5-(trifluoromethyl)pyrimidin-2-amine]
[2H]C([2H])([2H])NCc1ccc(-n2cc(-c3nc(NC4CCN(S(=O)(=O)CC)CC4)ncc3C(F)(F)F)cn2)c(C)c1 [Example 129, N-(1-(Ethylsulfonyl)piperidin-4-yl)-4-(1-(2-methyl-4-(((methyl-d3)amino)methyl)phenyl)-1H-pyrazol-4-yl)-5-(trifluoromethyl)pyrimidin-2-amine]
[2H]C([2H])([2H])NCc1ccc(-n2cc(-c3nc(NC4CCN(S(=O)(=O)C5CC5)CC4)ncc3C(F)(F)F)cn2)c(C)c1 [Example 130, N-(1-(Cyclopropylsulfonyl)piperidin-4-yl)-4-(1-(2-methyl-4-(((methyl-d3)amino)methyl)phenyl)-1H-pyrazol-4-yl)-5-(trifluoromethyl)pyrimidin-2-amine]
[2H]C([2H])([2H])NCc1ccc(-n2cc(-c3nc(NC4CCN(S(=O)(=O)c5ccn(C)n5)CC4)ncc3C(F)(F)F)cn2)c(C)c1 [Example 131, N-(1-((1-Methyl-1H-pyrazol-3-yl)sulfonyl)piperidin-4-yl)-4-(1-(2-methyl-4-(((methyl-d3)amino)methyl)phenyl)-1H-pyrazol-4-yl)-5-(trifluoromethyl)pyrimidin-2-amine]
[2H]C([2H])([2H])NCc1ccc(-n2cc(-c3nc(N[C@H]4CCN(S(C)(=O)=O)C[C@H]4F)ncc3C(F)(F)F)cn2)c(C)c1 [Example 132, N-((3R,4S)-3-Fluoro-1-(methylsulfonyl)piperidin-4-yl)-4-(1-(2-methyl-4-(((methyl-d3)amino)methyl)phenyl)-1H-pyrazol-4-yl)-5-(trifluoromethyl)pyrimidin-2-amine]
[2H]C([2H])([2H])NCc1ccc(-n2cc(-c3nc(N[C@H]4CCN(S(=O)(=O)C5CC5)C[C@H]4F)ncc3C(F)(F)F)cn2)c(C)c1 [Example 133, N-((3R,4S)-1-(Cyclopropylsulfonyl)-3-fluoropiperidin-4-yl)-4-(1-(2-methyl-4-(((methyl-d3)amino)methyl)phenyl)-1H-pyrazol-4-yl)-5-(trifluoromethyl)pyrimidin-2-amine]
[2H]C([2H])([2H])NCc1ccc(-n2cc(-c3nc(NC4CCN(S(C)(=O)=O)CC4)ncc3Cl)cn2)c(Cl)c1 [Example 134, 5-Chloro-4-(1-(2-chloro-4-(((methyl-d3)amino)methyl)phenyl)-1H-pyrazol-4-yl)-N-(1-(methylsulfonyl)piperidin-4-yl)pyrimidin-2-amine]
[2H]C([2H])([2H])NCc1ccc(-n2cc(-c3nc(NC4CCN(S(=O)(=O)C5CC5)CC4)ncc3Cl)cn2)c(Cl)c1 [Example 135, 5-Chloro-4-(1-(2-chloro-4-(((methyl-d3)amino)methyl)phenyl)-1H-pyrazol-4-yl)-N-(1-(cyclopropylsulfonyl)piperidin-4-yl)pyrimidin-2-amine]
[2H]C([2H])([2H])NCc1ccc(-n2cc(-c3nc(NC4CCN(S(=O)(=O)c5cn(C)cn5)CC4)ncc3Cl)cn2)c(C)c1 [Example 136, 5-Chloro-N-(1-((1-methyl-1H-imidazol-4-yl)sulfonyl)piperidin-4-yl)-4-(1-(2-methyl-4-(((methyl-d3)amino)methyl)phenyl)-1H-pyrazol-4-yl)pyrimidin-2-amine]
[2H]C([2H])([2H])NCc1ccc(-n2cc(-c3nc(NC4CCN(S(=O)(=O)c5ccn(C)n5)CC4)ncc3Cl)cn2)c(C)c1 [Example 137, 5-Chloro-N-(1-((1-methyl-1H-pyrazol-3-yl)sulfonyl)piperidin-4-yl)-4-(1-(2-methyl-4-(((methyl-d3)amino)methyl)phenyl)-1H-pyrazol-4-yl)pyrimidin-2-amine]
[2H]C([2H])([2H])NCc1ccc(-n2cc(-c3nc(NC4CCN(S(=O)(=O)CC)CC4)ncc3C#N)cn2)c(Cl)c1 [Example 139, 4-(1-(2-Chloro-4-(((methyl-d3)amino)methyl)phenyl)-1H-pyrazol-4-yl)-2((1-(ethylsulfonyl)piperidin-4-yl)amino)pyrimidine-5-carbonitrile]
[2H]C(NC([2H])([2H])[2H])c1ccc(-n2cc(-c3nc(NC4CCN(S(=O)(=O)CC)CC4)ncc3C#N)cn2)c(Cl)c1 (stereo not drawn) [Example 140, 4-(1-(2-Chloro-4-(((methyl-d3)amino)methyl-d)phenyl)-1H-pyrazol-4-yl)-2-((1-(ethylsulfonyl)piperidin-4-yl)amino)pyrimidine-5-carbonitrile]
[2H]C([2H])([2H])NCc1ccc(-n2cc(-c3nc(NC4CCN(S(=O)(=O)C5CC5)CC4)ncc3C#N)cn2)c(Cl)c1 [Example 141, 4-(1-(2-Chloro-4-(((methyl-d3)amino)methyl)phenyl)-1H-pyrazol-4-yl)-2-((1-(cyclopropylsulfonyl)piperidin-4-yl)amino)pyrimidine-5-carbonitrile]
[2H]C([2H])([2H])NCc1ccc(-n2cc(-c3nc(NC4CCN(S(=O)(=O)c5ccn(C)n5)CC4)ncc3C#N)cn2)c(Cl)c1 [Example 142, 4-(1-(2-Chloro-4-(((methyl-d3)amino)methyl)phenyl)-1H-pyrazol-4-yl)-2-((1-((1-methyl-1H-pyrazol-3-yl)sulfonyl)piperidin-4-yl)amino)pyrimidine-5-carbonitrile]
[2H]C([2H])([2H])NCc1ccc(-n2cc(-c3nc(N[C@H]4CCN(S(C)(=O)=O)C[C@H]4F)ncc3C#N)cn2)c(Cl)c1 [Example 143, 4-(1-(2-Chloro-4-(((methyl-d3)amino)methyl)phenyl)-1H-pyrazol-4-yl)-2-(((3R,4S)-3-fluoro-1-(methylsulfonyl)piperidin-4-yl)amino)pyrimidine-5-carbonitrile]
[2H]C([2H])([2H])NCc1ccc(-n2cc(-c3nc(N[C@H]4CCN(S(=O)(=O)CC)C[C@H]4F)ncc3C#N)cn2)c(Cl)c1 [Example 144, 4-(1-(2-Chloro-4-(((methyl-d3)amino)methyl)phenyl)-1H-pyrazol-4-yl)-2-(((3R,4S)-1-(ethylsulfonyl)-3-fluoropiperidin-4-yl)amino)pyrimidine-5-carbonitrile]
[2H]C([2H])([2H])NCc1ccc(-n2cc(-c3nc(N[C@H]4CCN(S(=O)(=O)C5CC5)C[C@H]4F)ncc3C#N)cn2)c(Cl)c1 [Example 145, 4-(1-(2-Chloro-4-(((methyl-d3)amino)methyl)phenyl)-1H-pyrazol-4-yl)-2-(((3R,4S)-1-(cyclopropylsulfonyl)-3-fluoropiperidin-4-yl)amino)pyrimidine-5-carbonitrile]
[2H]C([2H])([2H])NCc1ccc(-n2cc(-c3nc(N[C@H]4CCN(S(=O)(=O)C5CC5)C[C@H]4C)ncc3C#N)cn2)c(Cl)c1 [Example 146, 4-(1-(2-Chloro-4-(((methyl-d3)amino)methyl)phenyl)-1H-pyrazol-4-yl)-2-(((3R,4S)-1-(cyclopropylsulfonyl)-3-methylpiperidin-4-yl)amino)pyrimidine-5-carbonitrile]
[2H]C([2H])([2H])NCc1ccc(-n2cc(-c3nc(N[C@H]4CCN(S(=O)(=O)c5ccn(C)n5)C[C@H]4C)ncc3C#N)cn2)c(Cl)c1 [Example 147, 4-(1-(2-Chloro-4-(((methyl-d3)amino)methyl)phenyl)-1H-pyrazol-4-yl)-2-(((3R,4S)-3-methyl-1-((1-methyl-1H-pyrazol-3-yl)sulfonyl)piperidin-4-yl)amino)pyrimidine-5-carbonitrile]
